The values that follow come from patent publication US20050215635A1, “Diarylheptanoid compounds and uses thereof” (priority 2004, published 2005).

“Also recorded” adds a separate entry of the source.

Data set [1] deals with Du-145 prostate tumor cells. As to the kind of experiment: MTT-microculture tetrazolium cell viability assay / induction of apoptosis in Du-145. The data set is classed as cell-based. On the procedure: The rhizomes of Alpinia officinarum were purchased from Nuherbs Co. (Oakland, Calif.). Du-145 prostate tumor cells were obtained from the American Type Culture Collection (ATCC). Cells were maintained at 37° C. in an atmosphere of 5% CO2 and grown in Roswell Park Memorial Institute (RPMI) media 1640 (GIBCO/BRL) with 10% fetal bovine serum and with 5% penicillin and streptomycin.
The powdered roots of Alpinia officinarum were extracted with methanol and concentrated under vacuum using rotary evaporation. The dried residue was then partitioned with hexanes, ethyl acetate and 1-butanol successively. The three extracts were subjected to bioassays.
The dried ethyl acetate extract was then chromatographed on a normal phase silica gel column (2.5×30 cm) to perform bioassay-directed fractionation. The extract was first dissolved in methanol and loaded onto the column packing material. The prepared extract was then placed on top of the column and elution was performed using a solvent mixture of chloroform/methanol with an increasing amount of methanol (30:1, 20:1, 10:1, 5:1, 0:100; each 1000 mL). Successive fractions were collected and tested for biological activity. […] This fraction was then rechromatographed on a semipreparative Zorbax Rx-C18 reversed phase HPLC column (9.4 mm×240 mm, 5 μm) purchased from MacMod Analytical (Chadds Ford, Pa.). Compounds were eluted by an isocratic solvent system: 55% A, water with 0.05% formic acid (FA); 45% B, ACN (v/v) at a flow rate of 4 mL/min. The wavelength monitored was 205 nm. Successive fractions (1-3) were collected and sent for biological testing again.
Cellular growth in the presence or absence of experimental agents was determined using the modified method as previously described MTT-microculture tetrazolium assay (World Health Organization (ED.), Medicinal Plants in China, WHO Regional Publications, 1989, 21). Briefly, rapidly growing cells were harvested, counted, and inoculated at the appropriate concentrations (100 μL volume) into 96-well micro-titer plates using a multichannel pipet. After 24 hours, AO-1 to AO-5 were applied in different concentrations to triplicate culture wells, and cultures were incubated for 72 hours at 37° C. MTT ( Sigma, St. Louis, Mo.) was prepared at 2 mg/ml in Phosphate buffered saline (PBS) and 50 μL were added to microculture wells. After 4 hour incubation at 37° C., […] were removed from each well, and 150 μL of 100% DMSO were added to solubilize the MTT-formazan product. After thorough mixing with a mechanical plate mixer, absorbence was measured at 570 nm using a Dynatech microplate reader. […] This assay is based on the reduction of MTT tetrazolium salt to a formazan product by the metabolic activity of live cells and which was measured in a multiwell scanning spectrophotometer. Cell line growth and growth inhibition were expressed in terms of mean absorbance units and following the substraction of mean background absorbance.

Data set [2] relates to Mouse macrophage cell line RAW 264.7. As to the kind of experiment: MTT assay, RAW 264.7 cell viability. The data set is classed as cell-based. Conditions: HMP 6.25 μM-25 μM, 48 hrs. The procedure: MTT is a pale yellow substrate that is reduced by living cells to yield a dark blue formazan product. […] Mouse macrophage cell line RAW 264.7 were cultured in 96 well flat bottom plate at concentration of 0.25 million/ml and after 12 hrs of preconditioning, various concentrations of diarylheptanoid (HMP) was added and further cultured for 48 hrs. Thereafter, culture medium was aspirated and 100 μl of MTT dye (1 mg/ml in PBS) was added and further incubated for 4 hrs at 37° C. The formazan crystals made due to dye reduction by viable cells were dissolved using acidified isopropanol (0.1 N HCl). Index of cell viability was calculated by measuring the optical density of color produced by MTT dye reduction at 570 nm.

Data set [3] has as its system iNOS protein expression. The data set is described as follows: Western blotting of iNOS protein expression in RAW 264.7 cells. The format is cell-based, mouse. Conditions: HMP 12.5 and 25 μM + LPS (0.5 μg/ml), RAW 264.7, 18 hrs. The procedure:
(§1) FIG. 3. Inhibition of LPS induced iNOS and COX-2 protein expression by HMP. RAW 264.7 cells were treated with various concentrations of HMP and/or LPS (0.5 μg/ml) for 18 h. Total-cell lysate (40 μg) was resolved in 8-10% SDS-PAGE then transferred to PVDF membrane and detected with specific antibodies as described in Section 6. This experiment was repeated 4 times with similar observations. Lane-1, Control (without any treatment); 2, LPS (0.5 μg/ml); 3, LPS and HMP 25 μM; 4, LPS and HMP-12.5 μM.
(§2) At indicated time points, cells were rapidly washed with ice-cold PBS and solubilized in cold lysis buffer containing 10 mM Tris-base, 5 mM EDTA, 50 mM NaCl, 1% Triton X-100, 5 mM phenylmethylsulfonyl fluoride (PMSF), 2 mM sodium orthovanadate, 10 μg/ml leupeptin, 25 μg/ml aprotinin, 1 mM sodium pyrophosphate, and 20% glycerol. […]
(§3) Equal amount of protein (40 μg) from each sample was loaded on SDS-polyacrylamide electrophoresis gel (8 and 10% separating gels for iNOS and p42/44^MAPK, respectively) and resolved for 1.5 h at 120 V in buffer containing 95 mM Tris-HCl, 960 mM glycine, and 0.5% SDS. […] Specific bands were detected by enhanced chemiluminescence's detection system (Amersham-Pharmacia biotech, NJ, USA) and the membrane was exposed to X-ray film. […]
(In general: In western blotting, separated proteins are transferred to a membrane and probed.)

The test system of data set [4] is COX-2 protein expression. As to the kind of experiment: Western blotting of COX-2 protein expression in RAW 264.7 cells. The format is cell-based, mouse. To be noted: HMP 12.5 and 25 μM + LPS (0.5 μg/ml), RAW 264.7, 18 hrs. The procedure:
as §1, §2, §3

For the compound `COc1cc(CC/C=C/C(=O)CCc2ccccc2)ccc1O` [AO-4, 7-(4″-hydroxy-3″-methoxyphenyl)-1-phenyl-hept-4-en-3-one], the concentration for half-maximal inhibition (IC50) – broadly, the point on the concentration scale where inhibition reaches its midpoint – in data set [1] (Homo sapiens, Du-145 prostate tumor cells, MTT, 72 hours incubation, drug concentration giving 50% inhibition of growth, read-out: IC50 (μM), Effects of Diarylheptanoids on Inducing Apoptosis in DU-145 Cancer Cell Line) was 12.5 µM. Further, the “activity in bioassay: inducing apoptosis in Du-145 cancer cell line (in words)” value in data set [1] (bioassay-directed fractionation of Alpinia officinarum) is “some activity; also recorded: most potent”. The “cytotoxic effect on RAW 264.7 cells (cell viability, MTT)” value in data set [2] was “almost no cytotoxic effect”. Further, the “LPS induced iNOS protein expression (Western blot, in words)” value in data set [3] was “markedly inhibited”. The “LPS induced COX-2 protein expression (Western blot, in words)” value in data set [4] is reported as “markedly inhibited”.
